The values that follow come from patent publication US7625567B1, “Induction of immune responses to isoaspartyl-modified antigens” (Yale University, priority 2001, dated 2009).

Numbered stars: 1 amine (or outer) side, 2 acyl side, 3 side chain; on linkers, the order of the positions; unused ones are H or OH. Square brackets hold non-standard residues; d marks the D form. Ends that are not written are not given here. βAsp = O=C(O)[C@H](CC(=O)[*:2])N[*:1]

The subject of experiment [1] is B and T cell compartments. The note with it: mice immunized with peptide (Mamula et al. 1999); cited from earlier work.
The test system of experiment [2] is CD8 T cells stimulated with isoaspartyl or aspartyl TRP-2 pulsed APCs. The experiment can be described thus: CD8 T cell proliferation after immunization with TRP-2 peptide. It counts as in vivo, C57B1/6 mice. As to conditions: 50 μg peptide s.c. in CFA, day 7 lymph node CD8 T cells. Here is the method:
FIG. 7 illustrates that immunization with isoaspartyl TRP-2 peptide elicits CD8 T cells that proliferate in response to stimulation with isoaspartyl or aspartyl TRP-2 peptide. For these studies, C57B1/6 mice are immunized subcutaneously with 50 μg of either isoaspartyl TRP-2 peptide or aspartyl TRP-2 peptide emulsified in complete Freund's adjuvant (CFA). After 7 days, lymph node cells are collected and CD8 T cells are purified by magnetic bead depletion of CD4+, B220+, CD11c+ cells. CD8 T cells (1×10^5) are incubated for 3 days in tissue culture (37° C., 5% CO2) with irradiated splenic antigen presenting cells (APCs; 5×10^5 cells) pulsed with isoaspartyl TRP-2 or aspartyl TRP-2 in the concentrations as indicated.

Another experiment relates to B16F10 melanoma cells. In words: Anti-tumor antibody response: serum binding to B16F10 cells by flow cytometry. It counts as in vivo, mice. The note with it: 50 μg peptide s.c., serum day 28, 1/100 dilution, anti-mouse IgG-FITC. Here is the method: FIG. 8 illustrates that immunization with isoaspartyl TRP-2 elicits anti-tumor antibody responses. Mice were immunized subcutaneously with 50 μg of isoaspartyl or aspartyl TRP-2 peptide, as indicated. Mice were bled at day 28 post immunization. Serum (1/100 dilutions in phosphate buffered saline (PBS)) was incubated with B16F10 melanoma cells (5×10^5 cells) and analyzed by flow cytometry after the detection of bound antibody with anti-mouse IgG-FITC.
Background: Flow cytometry measures light scatter and fluorescence of single cells or particles in a stream.

The subject of experiment [3] is TRP-2 specific CD8 T cells. The experiment can be described thus: MHC class I (H-2 Kb) TRP-2 tetramer staining of CD8 T cells after immunization. It counts as in vivo, mice. The note with it: 50 μg s.c. in CFA, day 14 lymph node cells, 5 day culture with isoaspartyl TRP-2 10 μg/ml. Here is the method:
FIG. 9 illustrates that CD8 T cells specific for the TRP-2 peptide are elicited by immunization with isoaspartyl TRP-2 peptide. Mice were immunized subcutaneously with 50 μg of isoaspartyl TRP-2 emulsified in CFA. At day 14 after immunization, lymph node cells were removed and single cell suspensions (4×10^6 cells/ml) were incubated in culture with isoaspartyl TRP-2 peptide (10 μg/ml) for 5 days (37° C., 5% CO2). Living cells were purified by Ficoll-hypaque and incubated with anti-CD8-FITC antibody (Promega Inc.) and MHC class I (H-2 Kb) tetramers linked to PE, as indicated. Tetramer staining was performed with a control, non-specific peptide (SIINFEKL) (SEQ ID NO:4) and with aspartyl and isoaspartyl TRP-2 peptide tetramers, as indicated.

Experiment [4] has as its system EL-4 target cells pulsed with TRP-2. The experiment can be described thus: Cytotoxicity of CD8 T cells from immunized mice against peptide-pulsed EL-4 target cells (Cytotox 96). It counts as in vivo. The note with it: 50 μg in CFA s.c.; effector to target ratios 5:1, 10:1, 20:1; EL-4 targets. The procedure: FIG. 10 illustrates that immunization with isoaspartyl TRP-2 peptide elicits CD8 T cells that kill tumor peptide bearing target cells. Mice were immunized with isoaspartyl or aspartyl TRP-2 (50 μg in CFA), by subcutaneous route. Lymph node cells were expanded in vitro for 5 days with isoaspartyl TRP-2 as described above. After 5 days, purified effector CD8 T cells were mixed with EL-4 target cells pulsed with isoaspartyl TRP-2, aspartyl TRP-2, or unpulsed EL-4 cells, as indicated. Averages of triplicate cultures are reported for effector to target ratios of 5:1, 10:1, and 20:1. Cytotoxicity was performed by commercial non-radioactive methods (Ctyotox 96, Promega, Inc.) according to the manufacturer's instructions. As indicated in the upper panel of FIG. 10, mice immunized with isoaspartyl TR-2 peptide kill up to 35% of TRP-2 pulsed target cells.

For experiment [5], the system named is TRP-2 peptide pulsed syngeneic spleen cells. In words: In vivo CTL assay: killing of tumor peptide pulsed target cells. Also noted: species or system mice. The note with it: 50 μg in CFA s.c., day 21, 16 hours. Here is the method:
In this approach, groups of 6 mice were immunized with isoaspartyl or aspartyl TRP-2 (50 μg in CFA), by subcutaneous route. At day 21 mice were examined for their ability to kill tumor peptide pulsed target cells (in vivo CTL assays) modified by the protocol of Coles, et al. (J. Immunol. 168:834-838 (2002)). In brief, two populations of syngeneic target spleen cells are labeled with low or high concentrations of CFSE (0.5 μM or 5.0 μM CFSE, respectively). Spleen cells labeled with 5.0 μM CFSE are pulsed with isoaspartyl or aspartyl TRP-2 peptide (1 μg/ml) as the in vivo target cell population. Both high CFSE labeled/TRP-2 peptide pulsed and low CFSE labeled/unpulsed spleen cells (1×10^7 cells for each population) are transferred by intravenous route into immunized mice as described above. Mice were sacrificed at 16 hours and in vivo lysis of peptide pulsed targets is defined by flow cytometry technology as: Ratio=% CFSE low/% CFSE high % Specific Killing=[1−(ratio in control immunized/ratio in immunized)×100].

Experiment [6] has as its system B16F10 melanoma tumor masses. In words: CD8 T cell influx into B16F10 melanoma tumor tissue (immunohistochemistry). It counts as in vivo, mice. As to conditions: 50 μg in CFA s.c.; challenge day 21 with 0.5×10^6 B16F10 cells; tumors day 14 after challenge. Here is the method: FIG. 11 illustrates an influx of CD8 T cells into melanoma tumor tissues of mice immunized with isoaspartyl TRP-2 immunized mice. […] For these studies, mice were immunized with isoaspartyl or aspartyl TRP-2 (50 μg in CFA), by subcutaneous route. At day 21, mice were challenged with 0.5×10^6 B16F10 melanoma cells by subcutaneous route. At day 14 after tumor cell challenge, tumor masses were removed and stain for CD8 T cells by conventional immunohistochemistry.

In another experiment the test system is B16F10 tumor cells. The experiment can be described thus: Survival of immunized mice challenged with B16F10 tumor cells. Format: in vivo. The note with it: 50 μg in CFA s.c.; challenge s.c. day 21 with 0.5×10^6 cells; groups of 10 mice. Here is the method:
For these studies, groups of 10 mice were immunized with isoaspartyl or aspartyl TRP-2 (50 μg in CFA), by subcutaneous route as described above. Mice were challenged subcutaneously at day 21 with 0.5×10^6 cells. Survival was assessed every 3 days.

The subject of the next experiment is B16 melanoma cells. In words: Isoaspartyl content of living B16 melanoma cells after adenosine dialdehyde treatment (ISOQUANT assay). Format: cell-based, murine. The note with it: 30 μM adenosine dialdehyde, 48 h. The procedure: Isoaspartyl residues were detected by the enzyme, protein isoaspartyl methyltransferase, according to the manufacturer's protocol (ISOQUANT™ Protein Deamidation Detection Kit, Promega Corp., Madison, Wis.). In brief, samples and control peptides are incubated 30 min. at 30 C in a reaction mixture containing protein isoaspartyl methyltransferase, [^3H}S-adenosyl-L-methionine, and cold S-adenyl-L-methionine. The reaction is stopped at pH 10 on ice and volatile [^3H]methanol is condensed in the reaction vessel. Fifty μl of sample is adsorbed to a sponge attached to the cap of a scintillation vial. The sample is incubated 60 min. at 40 C to volatize [^3H]methanol into the scintillation mixture and counted for counts/min. […]
Briefly, selected cells, such as B16-F0 melanoma cells, are grown to confluency. The cells are then exposed to trypsin and counted. […] The cells are next harvested using trypsin, washed, and counted. […] Protein concentration is determined in both the supernatant and the pellet. Isoaspartyl generation is determined by ISOQUANT assay described above.
In cell culture, B16 cells were incubated with 30 μM adenosine dialdehyde for 48 h as described above. […] Isoaspartyl content was determined as described above.

[7] abbreviates: target cells transferred: Asp TRP-2 pulsed.
The mark [8] stands for this setting: target cells transferred: Isoasp TRP-2 pulsed.

Take “murine cytochrome c peptide 90-104: murine cytochrome c peptide 90-104, normal aspartyl form (ERADLIAYLKKATNE; UniProt P62897 91-105, looked up, fragment)”: the “B and T cell response to immunization” value in [1] was “no response by the B or T cell compartments”.

On to “Isoaspartyl TRP-2: TRP-2 peptide (sequence 181-188) synthesized with an isoaspartyl amino acid modification at residue 183 (SEQ ID NO:3) (VY[βAsp]FFVWL)”, for which the “CD8 T cell response to stimulation with isoaspartyl or aspartyl TRP-2 peptide” value in [2] was “elicits cross reactive T cells that respond to stimulation with either isoaspartyl or aspartyl TRP-2 peptide”. In addition, the “anti-tumor antibodies binding B16F10 cells” value with B16F10 melanoma cells is given as “effectively bind B16F10 cells”. Besides, the “TRP-2 specific CD8 T cells bound by aspartyl and isoaspartyl TRP-2 tetramers” value in experiment [3] was “profoundly stimulated the growth of CD8 T cells that were bound by aspartyl and isoaspartyl TRP-2 tetramers”. In experiment [4], the “killing of TRP-2 pulsed target cells” value is “up to 35%”. In addition, the “% Specific Killing” value in [5] (setting [7]) was found to be 56%; in experiment [5] (setting [8]), 60%. For the same compound, the “influx of CD8 T cells into tumor masses” value in experiment [6] is “significant influx of CD8 T cells”. Further, the “survival after B16F10 challenge” value with B16F10 tumor cells is “greater survival as compared to mice immunized with aspartyl TRP-2 or CFA control immunizations”.

For the compound `Nc1ncnc2c1ncn2C(C=O)OC(C=O)CO` (centres unmarked) [adenosine dialdehyde], the “isoaspartyl content compared to untreated B16 cells” value with B16 melanoma cells is listed as “enhanced from two to five fold”.

In the case of “Aspartyl TRP-2: TRP-2 peptide (sequence 181-188) synthesized with an aspartic acid residue at 183 (SEQ ID NO:2) (VYDFFVWL; Human)”, the “CD8 T cell response to stimulation with isoaspartyl or aspartyl TRP-2 peptide” value in [2] was “fails to elicit any detectable T cell responses”. In addition, in the experiment with B16F10 melanoma cells, the “anti-tumor antibodies binding B16F10 cells” value was “little or no anti-tumor antibodies are detected”. Further, in experiment [3], the “TRP-2 specific CD8 T cells bound by aspartyl and isoaspartyl TRP-2 tetramers” value is on record as “failed to stimulate TRP-2 specific CD8 T cells”. In experiment [4], the “killing of TRP-2 pulsed target cells” value is “fail to elicit cytotoxic T cell responses”. Further, the “% Specific Killing” value in experiment [5] (setting [7]) was 5%; in [5] (setting [8]) it was 22%. Moreover, the “influx of CD8 T cells into tumor masses” value in experiment [6] is listed as “fail to show CD8 T cells in the tumor masses”.
